Assay [1] addresses T1, 5-hydroxytryptamine receptor 1A (Homo sapiens, UniProt P08908).
T1 sequence (P08908 whole entry): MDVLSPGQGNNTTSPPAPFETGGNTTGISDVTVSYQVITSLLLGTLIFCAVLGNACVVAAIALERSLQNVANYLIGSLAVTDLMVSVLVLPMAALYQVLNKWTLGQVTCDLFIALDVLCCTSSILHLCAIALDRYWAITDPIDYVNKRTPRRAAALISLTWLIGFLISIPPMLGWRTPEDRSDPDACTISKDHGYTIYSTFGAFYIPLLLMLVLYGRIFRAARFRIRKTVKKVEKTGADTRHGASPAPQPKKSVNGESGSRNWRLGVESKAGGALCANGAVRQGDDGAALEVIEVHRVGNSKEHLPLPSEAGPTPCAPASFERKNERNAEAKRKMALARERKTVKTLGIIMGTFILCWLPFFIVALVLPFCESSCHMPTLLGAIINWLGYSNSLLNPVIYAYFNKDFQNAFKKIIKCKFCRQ

The next assay has as its target Prothrombin (Homo sapiens, UniProt P00734). Format: functional.
Assay [2] deals with Prostaglandin G/H synthase 1 (Homo sapiens, UniProt P23219). The format is functional.
Sequence of Prostaglandin G/H synthase 1 (P23219 whole entry): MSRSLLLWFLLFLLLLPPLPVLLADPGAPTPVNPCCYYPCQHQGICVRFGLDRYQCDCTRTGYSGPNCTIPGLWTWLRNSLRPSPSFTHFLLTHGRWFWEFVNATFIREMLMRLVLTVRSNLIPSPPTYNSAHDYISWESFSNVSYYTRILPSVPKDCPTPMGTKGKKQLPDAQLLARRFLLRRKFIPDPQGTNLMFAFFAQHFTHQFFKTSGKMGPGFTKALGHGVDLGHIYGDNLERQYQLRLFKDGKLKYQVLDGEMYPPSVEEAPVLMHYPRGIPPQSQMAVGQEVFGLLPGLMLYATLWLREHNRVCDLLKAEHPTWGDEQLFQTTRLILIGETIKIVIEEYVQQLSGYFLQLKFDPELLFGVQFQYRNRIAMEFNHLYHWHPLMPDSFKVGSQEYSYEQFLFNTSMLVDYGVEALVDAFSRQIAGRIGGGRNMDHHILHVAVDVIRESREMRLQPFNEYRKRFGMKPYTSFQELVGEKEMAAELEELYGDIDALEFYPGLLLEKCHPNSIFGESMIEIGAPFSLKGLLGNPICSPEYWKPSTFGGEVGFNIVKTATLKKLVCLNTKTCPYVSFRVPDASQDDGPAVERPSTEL
For assay [3], the target named is T2, Peroxisome proliferator-activated receptor gamma (Homo sapiens, UniProt P37231).
T2 sequence (P37231 whole entry): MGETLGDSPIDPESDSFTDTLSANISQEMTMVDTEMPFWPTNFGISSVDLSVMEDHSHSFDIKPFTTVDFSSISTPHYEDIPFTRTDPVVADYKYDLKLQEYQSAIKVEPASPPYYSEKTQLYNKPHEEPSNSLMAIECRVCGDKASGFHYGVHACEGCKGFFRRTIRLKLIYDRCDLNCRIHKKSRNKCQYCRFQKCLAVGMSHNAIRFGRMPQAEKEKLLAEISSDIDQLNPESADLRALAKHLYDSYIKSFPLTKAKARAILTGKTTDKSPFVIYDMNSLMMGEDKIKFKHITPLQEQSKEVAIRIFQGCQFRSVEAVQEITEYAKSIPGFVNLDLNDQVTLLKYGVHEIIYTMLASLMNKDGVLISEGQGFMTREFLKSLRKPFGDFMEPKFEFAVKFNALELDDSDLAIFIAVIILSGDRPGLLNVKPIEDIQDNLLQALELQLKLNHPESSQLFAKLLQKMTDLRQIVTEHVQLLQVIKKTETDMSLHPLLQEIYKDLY
The format is functional.

Assay [4] concerns the target Neurotensin receptor type 1 (Homo sapiens, UniProt P30989).
Assay [5] addresses Voltage-dependent N-type calcium channel subunit alpha-1B (Rattus norvegicus, UniProt Q02294). Format: functional.
Assay [6] has as its target T3, Corticotropin-releasing factor receptor 2 (Homo sapiens, UniProt Q13324).
T3 sequence (Q13324 whole entry): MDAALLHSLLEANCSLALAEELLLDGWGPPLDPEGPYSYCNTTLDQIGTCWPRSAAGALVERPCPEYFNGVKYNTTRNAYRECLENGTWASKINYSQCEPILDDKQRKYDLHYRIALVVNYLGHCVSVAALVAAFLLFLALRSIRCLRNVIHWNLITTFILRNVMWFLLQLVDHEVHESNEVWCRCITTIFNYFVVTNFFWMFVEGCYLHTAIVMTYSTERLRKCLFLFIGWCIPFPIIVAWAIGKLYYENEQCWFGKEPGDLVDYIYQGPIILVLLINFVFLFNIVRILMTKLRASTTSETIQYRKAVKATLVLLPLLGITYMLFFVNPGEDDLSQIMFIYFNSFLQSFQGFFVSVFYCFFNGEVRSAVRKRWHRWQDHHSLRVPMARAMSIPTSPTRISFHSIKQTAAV

The target in assay [7] is T4, Endothelin receptor type B (Homo sapiens, UniProt P24530).
T4 sequence (P24530 whole entry): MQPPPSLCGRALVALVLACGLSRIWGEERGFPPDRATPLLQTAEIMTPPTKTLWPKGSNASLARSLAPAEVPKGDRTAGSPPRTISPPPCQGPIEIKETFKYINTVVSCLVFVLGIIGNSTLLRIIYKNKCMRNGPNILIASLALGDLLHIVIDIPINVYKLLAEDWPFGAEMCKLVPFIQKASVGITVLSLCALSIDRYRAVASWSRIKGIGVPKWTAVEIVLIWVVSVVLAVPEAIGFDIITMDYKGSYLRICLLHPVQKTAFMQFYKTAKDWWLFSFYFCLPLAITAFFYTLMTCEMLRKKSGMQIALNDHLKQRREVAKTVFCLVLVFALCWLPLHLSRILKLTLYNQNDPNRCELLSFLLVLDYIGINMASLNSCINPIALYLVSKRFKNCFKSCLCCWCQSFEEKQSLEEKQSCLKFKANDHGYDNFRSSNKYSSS

For another assay, the target named is Estrogen receptor beta (Homo sapiens, UniProt Q92731).
Sequence of Estrogen receptor beta (Q92731 whole entry): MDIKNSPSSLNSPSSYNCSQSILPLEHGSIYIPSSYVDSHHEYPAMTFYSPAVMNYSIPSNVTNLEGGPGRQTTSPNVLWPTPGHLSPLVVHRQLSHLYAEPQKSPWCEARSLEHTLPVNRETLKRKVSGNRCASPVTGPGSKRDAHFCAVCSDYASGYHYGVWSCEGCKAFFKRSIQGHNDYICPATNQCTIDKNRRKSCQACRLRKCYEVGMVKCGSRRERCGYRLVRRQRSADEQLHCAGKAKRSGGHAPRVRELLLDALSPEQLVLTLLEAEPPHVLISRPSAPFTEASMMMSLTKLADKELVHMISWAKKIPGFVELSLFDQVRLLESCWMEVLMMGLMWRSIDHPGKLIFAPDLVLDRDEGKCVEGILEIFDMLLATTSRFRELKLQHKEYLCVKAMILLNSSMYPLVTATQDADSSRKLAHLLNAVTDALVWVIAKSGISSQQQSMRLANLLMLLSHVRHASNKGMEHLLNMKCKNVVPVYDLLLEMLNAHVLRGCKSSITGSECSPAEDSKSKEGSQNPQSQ
Assay [8] addresses T5, Corticotropin-releasing factor receptor 1 (Homo sapiens, UniProt P34998).
T5 sequence (P34998 whole entry): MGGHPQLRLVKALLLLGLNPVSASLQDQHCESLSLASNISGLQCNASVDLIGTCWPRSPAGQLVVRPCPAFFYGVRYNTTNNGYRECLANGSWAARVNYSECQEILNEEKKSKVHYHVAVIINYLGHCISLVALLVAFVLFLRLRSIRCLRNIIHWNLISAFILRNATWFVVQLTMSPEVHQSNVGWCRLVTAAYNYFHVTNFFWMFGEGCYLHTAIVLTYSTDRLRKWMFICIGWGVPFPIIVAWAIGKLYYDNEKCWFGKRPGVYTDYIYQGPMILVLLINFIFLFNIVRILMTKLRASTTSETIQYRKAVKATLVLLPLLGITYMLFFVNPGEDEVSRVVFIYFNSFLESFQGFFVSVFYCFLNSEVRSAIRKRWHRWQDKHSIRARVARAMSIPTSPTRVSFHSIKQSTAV

The record followed here is ChEMBL document CHEMBL5291721, “A preclinical secondary pharmacology resource illuminates target-adverse drug reaction associations of marketed drugs” (Nat Commun, 2023).

Where only a bound is given, the exact number is not on record here.
Further: assay procedure not described here.

Sequence of Voltage-dependent N-type calcium channel subunit alpha-1B (Q02294 whole entry): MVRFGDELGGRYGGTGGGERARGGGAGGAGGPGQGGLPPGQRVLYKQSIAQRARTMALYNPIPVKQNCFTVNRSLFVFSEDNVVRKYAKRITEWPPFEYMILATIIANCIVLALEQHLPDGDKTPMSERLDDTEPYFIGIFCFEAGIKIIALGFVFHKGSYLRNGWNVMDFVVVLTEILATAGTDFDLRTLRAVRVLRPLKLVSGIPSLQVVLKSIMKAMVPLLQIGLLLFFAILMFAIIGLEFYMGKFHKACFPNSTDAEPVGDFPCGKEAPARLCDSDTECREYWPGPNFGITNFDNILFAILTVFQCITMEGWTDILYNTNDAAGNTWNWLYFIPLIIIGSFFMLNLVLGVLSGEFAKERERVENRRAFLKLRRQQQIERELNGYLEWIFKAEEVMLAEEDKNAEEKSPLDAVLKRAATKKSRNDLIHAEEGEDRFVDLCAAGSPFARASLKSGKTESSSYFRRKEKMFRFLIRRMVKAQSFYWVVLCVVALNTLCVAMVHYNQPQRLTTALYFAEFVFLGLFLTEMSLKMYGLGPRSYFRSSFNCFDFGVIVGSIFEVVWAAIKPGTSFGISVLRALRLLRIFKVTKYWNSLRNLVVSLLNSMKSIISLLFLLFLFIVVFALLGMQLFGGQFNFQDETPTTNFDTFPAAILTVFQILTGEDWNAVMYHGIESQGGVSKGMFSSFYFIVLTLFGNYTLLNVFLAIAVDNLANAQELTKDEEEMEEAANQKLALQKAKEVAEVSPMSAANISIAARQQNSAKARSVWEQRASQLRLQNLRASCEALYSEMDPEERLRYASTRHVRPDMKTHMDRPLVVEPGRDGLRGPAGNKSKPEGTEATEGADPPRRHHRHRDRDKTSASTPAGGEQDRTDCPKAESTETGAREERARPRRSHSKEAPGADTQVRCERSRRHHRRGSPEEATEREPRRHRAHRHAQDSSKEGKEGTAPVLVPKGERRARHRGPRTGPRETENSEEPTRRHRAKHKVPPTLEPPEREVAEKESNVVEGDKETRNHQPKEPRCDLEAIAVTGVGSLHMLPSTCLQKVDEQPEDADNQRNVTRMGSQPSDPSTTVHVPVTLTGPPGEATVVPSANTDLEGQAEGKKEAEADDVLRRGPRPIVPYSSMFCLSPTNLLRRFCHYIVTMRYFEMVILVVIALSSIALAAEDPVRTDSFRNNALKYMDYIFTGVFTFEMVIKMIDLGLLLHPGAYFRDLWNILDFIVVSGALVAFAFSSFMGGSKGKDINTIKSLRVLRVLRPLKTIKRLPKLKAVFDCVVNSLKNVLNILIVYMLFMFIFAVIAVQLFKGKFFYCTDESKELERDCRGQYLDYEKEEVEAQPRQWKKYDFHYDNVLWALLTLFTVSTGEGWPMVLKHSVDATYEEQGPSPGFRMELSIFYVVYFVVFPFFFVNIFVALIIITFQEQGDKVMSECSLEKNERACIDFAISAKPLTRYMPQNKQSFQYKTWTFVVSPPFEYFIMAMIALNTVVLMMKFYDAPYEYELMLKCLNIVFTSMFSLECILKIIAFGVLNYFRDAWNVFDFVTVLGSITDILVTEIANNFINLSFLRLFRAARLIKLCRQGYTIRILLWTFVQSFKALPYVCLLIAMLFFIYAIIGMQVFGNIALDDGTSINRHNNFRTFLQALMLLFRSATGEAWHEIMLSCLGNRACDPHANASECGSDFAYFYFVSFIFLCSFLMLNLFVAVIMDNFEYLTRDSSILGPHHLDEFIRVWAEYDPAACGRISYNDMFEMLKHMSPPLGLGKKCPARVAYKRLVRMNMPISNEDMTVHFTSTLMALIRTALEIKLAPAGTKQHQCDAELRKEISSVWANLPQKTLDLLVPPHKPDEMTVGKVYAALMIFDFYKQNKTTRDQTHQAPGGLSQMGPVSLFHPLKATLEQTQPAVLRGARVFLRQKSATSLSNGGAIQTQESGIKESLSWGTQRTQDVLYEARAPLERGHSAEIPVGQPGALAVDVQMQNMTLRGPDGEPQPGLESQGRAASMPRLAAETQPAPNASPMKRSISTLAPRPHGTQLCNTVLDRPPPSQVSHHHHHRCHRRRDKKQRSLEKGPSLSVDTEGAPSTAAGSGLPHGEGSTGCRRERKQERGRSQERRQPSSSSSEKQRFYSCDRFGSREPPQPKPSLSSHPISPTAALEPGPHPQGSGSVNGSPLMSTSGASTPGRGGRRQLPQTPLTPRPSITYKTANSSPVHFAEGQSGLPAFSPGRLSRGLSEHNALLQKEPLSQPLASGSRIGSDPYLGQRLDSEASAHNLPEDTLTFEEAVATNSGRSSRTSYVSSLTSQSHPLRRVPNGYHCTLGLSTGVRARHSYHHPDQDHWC
Sequence of Neurotensin receptor type 1 (P30989 whole entry): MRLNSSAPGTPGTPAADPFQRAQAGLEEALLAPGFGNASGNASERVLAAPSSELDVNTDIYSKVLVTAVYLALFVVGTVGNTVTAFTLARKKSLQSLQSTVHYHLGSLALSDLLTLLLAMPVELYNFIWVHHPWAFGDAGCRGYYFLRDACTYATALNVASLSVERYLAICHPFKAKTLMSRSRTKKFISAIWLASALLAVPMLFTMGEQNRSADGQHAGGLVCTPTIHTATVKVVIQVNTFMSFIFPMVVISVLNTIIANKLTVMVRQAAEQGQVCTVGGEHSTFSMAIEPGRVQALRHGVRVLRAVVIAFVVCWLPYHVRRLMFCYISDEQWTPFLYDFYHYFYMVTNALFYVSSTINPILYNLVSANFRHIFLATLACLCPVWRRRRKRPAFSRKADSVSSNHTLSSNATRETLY

In the case of `O=C(O)CCCCC1CCSS1` (stereo not drawn) [LIPOIC ACID, ALPHA], the half-maximal activity concentration (AC50) (in assay [1]; on Prothrombin; in [2]) was over 30 µM in each case.
In assay [3], `Oc1ccc2c(c1)[C@@]13CCCC[C@@]1(O)[C@@H](C2)N(CC1CCC1)CC3` [BUTORPHANOL] displayed an AC50 of over 30 µM.
Compound `CCN1CCCC1CNC(=O)c1cc(S(=O)(=O)CC)c(N)cc1OC` (stereo not given) [AMISULPRIDE] came in with a concentration at half-maximal activity (AC50) in [3] of over 30 µM.
For the compound `CC(=O)OCC(=O)[C@@]1(O)[C@H](C)C[C@H]2[C@@H]3CCC4=CC(=O)C=C[C@]4(C)[C@@]3(F)[C@@H](O)C[C@@]21C` [DEXAMETHASONE ACETATE], the AC50 is over 30 µM in assay [4]; over 10 µM in assay [5]; over 30 µM in assay [6]; over 30 µM in assay [7]; over 30 µM on Estrogen receptor beta; over 30 µM in [8].
For `Cn1c(=O)cc(N2CCC[C@@H](N)C2)n(Cc2ccccc2C#N)c1=O` [ALOGLIPTIN], the AC50 in assay [4] is over 30 µM; in [5] it was over 10 µM; in assay [6] it was over 30 µM; in assay [7], over 30 µM; on Estrogen receptor beta, over 30 µM; in assay [8], over 30 µM.
As to `Nc1c2ccccc2nc2ccccc12` [AMINACRINE], the AC50 (in assay [1]; on Prothrombin; in [2]) was over 30 µM throughout.

Broadly, the AC50 is the midpoint of the concentration-response curve, whichever way the signal moves.
